Results published in patent publication US11116740B2, “Methods for use in support of planned supplement and food ingredient products for diagnosis and treatment of metabolic syndrome” (priority 2015, dated 2021).

Assay: Serum fatty acid metabolomics (UPLC-MS/MS), feeding study
Experimental: This study examined global metabolic profiles in six dolphins (“Group A dolphins”). The dolphins lived in netted enclosures within San Diego Bay. The dolphins started on a 100% capelin diet. Group A dolphins were fed one-third of their daily diet in the morning after their routine overnight fast and 2h postprandial, in-water, and trained blood samples were drawn (typically near 10:00 a.m.). An additional four dolphins (“Group C dolphins”) were fed the capelin diet.
Two hour post-prandial samples were collected from the dolphins at baseline (week 0) and at four time points following the switch to the modified diet: 6, 12, 18, and 24 weeks. Routine monthly samples collected from four reference dolphins that were housed in the same environment as the Group A dolphins were assessed for glucose, triglycerides, ferritin, and percent serum fatty acids.
Sample Preparation: Samples were prepared using the automated MicroLab STAR® system from Hamilton Company. Several recovery standards were added prior to the first step in the extraction process for QC purposes. Proteins were precipitated with methanol under vigorous shaking for 2 min (Glen Mills GenoGrinder 2000) followed by centrifugation. The resulting extract was divided into five fractions: two for analysis by two separate reverse phase (RP)/UPLC-MS/MS methods with positive ion mode electrospray ionization (ESI), one for analysis by RP/UPLC-MS/MS with negative ion mode ESI, one for analysis by HILIC/UPLC-MS/MS with negative ion mode ESI, and one sample was reserved. Samples were placed briefly on a TurboVap® (Zymark) to remove the organic solvent. The sample extracts were stored overnight under nitrogen before preparation for analysis.
Ultrahigh Performance Liquid Chromatography-Tandem Mass Spectroscopy (UPLC-MS/[…]): Each of four methods utilized a Waters ACQUITY ultra-performance liquid chromatography (UPLC) and a Thermo Scientific Q-Exactive high resolution/accurate mass spectrometer interfaced with a heated electrospray ionization (HESI-II) source and Orbitrap mass analyzer operated at 35,000 mass resolution. A sample extract was dried, then reconstituted in solvents compatible to each of the four methods. Each reconstitution solvent contained a series of standards at fixed concentrations to ensure injection and chromatographic consistency. A first aliquot was analyzed using acidic positive ion conditions, chromatographically optimized for more hydrophilic compounds. In this method, the extract was gradient eluted from a C18 column (Waters UPLC BEH C18-2. 1×100 mm, 1.7 μm) using water and methanol, containing 0.05% perfluoropentanoic acid (PFPA) and 0.1% formic acid (FA). A second aliquot was also analyzed using acidic positive ion conditions, however it was chromatographically optimized for more hydrophobic compounds. In this method, the extract was gradient eluted from the same afore mentioned C18 column using methanol, acetonitrile, water, 0.05% PFPA and 0.01% FA and was operated at an overall higher organic content. A third aliquot was analyzed using basic negative ion optimized conditions using a separate dedicated C 18 column. The basic extracts were gradient eluted from the column using methanol and water, however with 6.5 mM Ammonium Bicarbonate at pH 8. […] The MS analysis alternated between MS and data-dependent MSn scans using dynamic exclusion. The scan range varied slighted between methods but covered 70-1000 m/z.
Data Extraction and Compound Identification: Raw data was extracted, peak-identified and QC processed using Metabolon's hardware and software. The systems were based on a web-service platform utilizing Microsoft's .NET technologies, which ran on high-performance application servers and fiber-channel storage arrays in clusters to provide active failover and load-balancing. Compounds were identified by comparison to library entries of purified standards or recurrent unknown entities.

[1] = Group A dolphins, modified diet, proportional to value at outset of study
[2] = bottlenose dolphin (Tursiops truncatus), in vivo, 6 weeks
[3] = bottlenose dolphin (Tursiops truncatus), in vivo, 12 weeks
[4] = bottlenose dolphin (Tursiops truncatus), in vivo, 18 weeks
[5] = bottlenose dolphin (Tursiops truncatus), in vivo, 24 weeks

| serum concentration 6 wk / 0 wk (in vivo) | serum concentration 12 wk / 0 wk (in vivo) | serum concentration 18 wk / 0 wk (in vivo) | serum concentration 24 wk / 0 wk (in vivo) | Compound | further results |
| --- | --- | --- | --- | --- | --- |
| 1.13 | 1.1 | 0.97 | 0.98 | linolenate |  |
| 0.71 | 1.41 | 0.74 | 0.62 | CCCCCCCC/C=C\CCCCCCCCCCCCCC(=O)O [nervonate (24:ln9)*, nervonate] |  |
| 1.45 | 1.55 | 0.97 | 1.02 | CCCC/C=C\CCCCCCCC(=O)O [myristoleate (14:ln5), myristoleate] |  |
| 0.85 | 0.99 | 0.76 | 0.54 | CCCCCC/C=C\CCCCCCCC(=O)O [palmitoleate (16:ln7), palmitoleate] |  |
|  | 0.71 | 0.61 | 0.58 | CC/C=C\C/C=C\C/C=C\C/C=C\CCCCC(=O)O [stearidonate (18:4n3), stearidonate] |  |
| 1.01 | 1.27 | 1.42 | 0.97 | CCCCCCCCCCCCCCC(=O)O [pentadecanoate (15:0), pentadecanoate] |  |
| 1.22 | 1.65 | 1.79 | 1.28 | CCCCCCCCCCCCCCCCCCC(=O)O [nonadecanoate (19:0), nonadecanoate] |  |
| 0.98 | 1.04 | 0.84 | 0.64 | oleate/vaccenate [oleate/vaccenate (18:1)] |  |

The next lines start with the compound.

| Compound | serum concentration 6 wk / 0 wk (in vivo) | serum concentration 12 wk / 0 wk (in vivo) | serum concentration 18 wk / 0 wk (in vivo) | serum concentration 24 wk / 0 wk (in vivo) | further results |
| --- | --- | --- | --- | --- | --- |
| CCCCCCCCCCCCCC(=O)O [myristate (14:0), myristate] |  |  |  |  | serum concentration 6 wk / 0 wk [1]: 0.8; serum concentration 12 wk / 0 wk [1]: 0.87; serum concentration 18 wk / 0 wk [1]: 0.74; serum concentration 24 wk / 0 wk [1]: 0.58 |
| CC/C=C\C/C=C\C/C=C\C/C=C\C/C=C\CCCC(=O)O [eicosapentaenoate (EPA; 20:5n3), eicosapentaenoate] |  |  |  |  | serum concentration 6 wk / 0 wk [2]: 0.88; serum concentration 12 wk / 0 wk [3]: 0.99; serum concentration 18 wk / 0 wk [4]: 0.88; serum concentration 24 wk / 0 wk [5]: 0.57 |
| CCCCCCCC(=O)O [caprylate (8:0), caprylate] |  |  |  |  | serum concentration 6 wk / 0 wk [1]: 1.1; serum concentration 12 wk / 0 wk [1]: 1.07; serum concentration 18 wk / 0 wk [1]: 0.96; serum concentration 24 wk / 0 wk [1]: 1.12 |
| CCCCCC(=O)O [caproate (6:0), caproate] |  |  |  |  | serum concentration 6 wk / 0 wk [1]: 0.98; serum concentration 12 wk / 0 wk [1]: 1.01; serum concentration 18 wk / 0 wk [1]: 0.92; serum concentration 24 wk / 0 wk [1]: 0.76 |
| CCCCCCC=CCCCCCCCCC(=O)O [10-heptadecenoate (17:ln7), 10-heptadecenoate] | 1.12 | 1.38 | 1.35 | 0.87 |  |
| CCCCC/C=C\C/C=C\CCCCCCCCCC(=O)O [dihomo-linoleate (20:2n6), dihomo-linoleate] | 0.9 | 1.12 |  | 0.73 |  |
| CCCCC/C=C\C/C=C\CCCCCCCC(=O)O [linoleate (18:2n6), linoleate] |  |  |  |  | serum concentration 6 wk / 0 wk [2]: 0.87; serum concentration 12 wk / 0 wk [3]: 0.93; serum concentration 18 wk / 0 wk [4]: 0.76; serum concentration 24 wk / 0 wk [5]: 0.66 |
| CCCCC/C=C\C/C=C\C/C=C\C/C=C\C/C=C\CCC(=O)O [docosapentaenoate (n6 DPA; 22:5n6), all-cis-4,7,10,13,16-docosapentaenoic acid] | 1.68 | 2.5 | 2.33 | 2.09 |  |
| CCCCCCCCC(=O)O [perlargonate (9:0), nonanoic acid] |  |  |  |  | serum concentration 6 wk / 0 wk [2]: 1.26; serum concentration 18 wk / 0 wk [4]: 1.56; serum concentration 24 wk / 0 wk [5]: 1.41 |
| CC/C=C\C/C=C\C/C=C\CCCCCCCCCCCC(=O)O [docosatrienoate (22:3n3), docosatrienoate] | 1.08 | 2.06 | 1.96 | 1.06 |  |
| C=CCCCCCCCCC(=O)O [10-undecenoate (1 l:ln1), 10-undecenoate] | 1.41 | 1.54 | 1.22 | 1.75 |  |
| CCCCC/C=C\C/C=C\C/C=C\C/C=C\CCCCCC(=O)O [adrenate (22:4n6), all-cis-7,10,13,16-docosatetraenoic acid] | 1.51 | 2.17 | 2.82 | 1.73 |  |
| eicosenoate [eicosenoate (20:1)] | 0.72 | 0.81 | 0.72 | 0.43 |  |
| CCCCC/C=C\C/C=C\CCCCCCCCCCCC(=O)O [docosadienoate (22:2n6), docosadienoate] | 0.85 | 1.08 | 0.99 | 0.54 |  |
| CC/C=C\C/C=C\C/C=C\C/C=C\C/C=C\C/C=C\CCC(=O)O [docosahexaenoate (DHA; 22:6n3), docosahexaenoate] |  |  |  |  | serum concentration 6 wk / 0 wk [1]: 1.05; serum concentration 12 wk / 0 wk [1]: 1.23; serum concentration 18 wk / 0 wk [1]: 1.06; serum concentration 24 wk / 0 wk [1]: 0.74 |
| docosapentaenoate [docosapentaenoate (n3 DPA; 22:5n3)] | 1.13 | 1.37 | 1.27 | 0.78 |  |
| CCCCCCC(=O)O [heptanoate (7:0), heptanoate] |  |  |  |  | serum concentration 6 wk / 0 wk [1]: 1.42; serum concentration 12 wk / 0 wk [1]: 1.02; serum concentration 18 wk / 0 wk [1]: 1.23; serum concentration 24 wk / 0 wk [1]: 1.21 |
| CCCCCCCC/C=C\CCCCCCCCCCCC(=O)O [erucate (22:ln9), erucate] | 0.71 | 0.81 | 0.68 | 0.45 |  |
| CCCCCCC=CCCCC(=O)O [5-dodecenoate (12:ln7), 5-dodecenoate] | 1.49 | 1.67 | 1.08 | 1.11 |  |
| CCCCCCCCC=CCCCCCCCCC(=O)O [10-nonadecenoate (19:ln9), 10-nonadecenoate] | 1.05 | 1.28 | 1.17 | 0.8 |  |
